Literature values, collected in patent US8846104B2, “Pharmaceutical compositions for the deterrence and/or prevention of abuse” (priority 2006, dated 2014).

System: mu over delta sites

O=C1CC[C@@]2(O)[C@H]3Cc4ccc(O)c5c4[C@@]2(CCN3CC2CC2)[C@H]1O5 [naltrexone]
blocking action, site preference: strong preferential blocking action against mu over delta sites
